# Patent publication US11259516B2, “Method and apparatus for capsular delivery to plants” (priority 2017, dated 2022)
# Legend:
# [1] = tested on: Koelreuteria elegans (Golden rain tree); set-up: key: X indicates that the given herbicide is suitable for controlling the given weed; settings: cited from earlier work
# [2] = tested on: western white gum (Eucalyptus argophloia); assay: Example 2: glyphosate and hexazinone capsules, thinning trial in western white gum plantation; settings: Eucalyptus argophloia
# Experimental: The trial for this example was established at the HQP plantation near Jandowae on 6 Feb. 2018. The trees were planted in rows 4 m apart at 1.5 m spacing. Trees were 6-10 m tall. Trees to be maintained were marked and the other trees were treated.
# (§1) Four treatments were used, with capsules as follows:
# The capsules used were HPMC Size 0 Natural TR.V700 colour cap and body Vcaps (Suzhou Capsugel® Ltd, China). Capsules were hand packed using a Capsugel Profiller apparatus (https://www.capsugel.com/biopharmaceutical-products/profiller). An embodiment of apparatus 10 adapted to include handle 2201 (FIG. 17) was used to drill a hole into the stem, insert the herbicide capsule and seal with a wooden plug.
# (§2) Herbicide capsules were applied to approximately 10 trees for each of the treatments. The number of capsules applied to each tree was independent of tree circumference which was measured at chest height. The tree circumferences range was from 20 to 34 centimetres. At 4 weeks, a small sample of trees were cut down with a chainsaw and cross-sections of stems containing the sites of insertion of the herbicide capsules removed. These stem pieces were returned to the laboratory and split open longitudinally through the insertion point. Tree health was assessed at 11 weeks (24 Apr. 2018) on a 0-4 scale with 0 being dead and 4 being healthy. Observations were made for evidence of flashback in untreated trees.
# [3] = tested on: Schinus terebinthifolius (Broad-leafed pepper tree); set-up: key: X indicates that the given herbicide is suitable for controlling the given weed; settings: cited from earlier work
# Populus spp (Poplars) = tested on: Populus spp (Poplars); set-up: key: X indicates that the given herbicide is suitable for controlling the given weed; settings: cited from earlier work
# [4] = tested on: Solanum mauritianum (Wild tobacco tree); set-up: key: X indicates that the given herbicide is suitable for controlling the given weed; settings: cited from earlier work
# [5] = tested on: Lycium ferocissium (African boxthom); set-up: key: X indicates that the given herbicide is suitable for controlling the given weed; settings: cited from earlier work
# [6] = tested on: Psidium cattleianum (Cherry guava); set-up: key: X indicates that the given herbicide is suitable for controlling the given weed; settings: cited from earlier work
# [7] = tested on: Cascabela thevetia (Yellow oleander); set-up: key: X indicates that the given herbicide is suitable for controlling the given weed; settings: cited from earlier work
# [8] = tested on: Eucalyptus dunnii (Dunn's White Gum); assay: Case 3: dose rate effect of Di-Bak G on Eucalyptus dunnii, field trial; format: in vivo; settings: for mortality: single capsule per tree
# Experimental: Generally, one capsule was inserted per 10 cm stem circumference.
# Tree health was assessed on a 0-4 scale, 0 being dead and 4 being healthy. Observations were made for evidence of ‘flashback’ in nearby untreated trees.
# In this trial, one, two or three capsules of glyphosate were inserted into Eucalyptus dunnii trees irrespective of their circumference. The trial was established on Brooklyn station, Upper Tooloom, near Urbenville on 26 May 2017. GPS co-ordinates were S28° 32.488′ E152° 24.778′. The trees were arranged in a similar manner, and similar in age and size, to the E. saligna trees described in Case 2. Desirable trees were marked and the other trees were treated.
# This trial consisted of one replicate of 15 trees for each treatment. […] Tree health was assessed at 4 months (25 Aug. 2017) and 7 months (20 Dec. 2017). […] At the 4 month assessment, samples were collected for observation of dissolution of capsule and herbicide. Rainfall data for the closest recording station (Urbenville) was taken from the Bureau of Meteorology (BOM) internet site. No recent temperature data records were available for this site.
# Mimosa pigra (Mimosa) = tested on: Mimosa pigra (Mimosa); set-up: key: X indicates that the given herbicide is suitable for controlling the given weed; settings: cited from earlier work
# [9] = tested on: western white gum (Eucalyptus argophloia); assay: Example 3: glyphosate and glyphosate+imazapyr capsules, thinning trial in western white gum plantation
# Experimental: The trial was established at the HQP plantation near Jandowae on 6 Feb. 2018. The trees were planted in rows 4 m apart at 1.5 m spacing. Trees were 6-10 m tall. Trees to be maintained were marked and the other trees were treated.
# as §1
# Capsules and applicator used were as described in Example 2.
# as §2, with “to approx.” for “to approximately”, “from 12” for “from 20”, “to 25” for “to 34”
# [10] = tested on: Celtis sinensis (Chinese celtis); set-up: key: X indicates that the given herbicide is suitable for controlling the given weed; settings: cited from earlier work
# [11] = tested on: Toxicodendron succedaneum (Rhus); set-up: key: X indicates that the given herbicide is suitable for controlling the given weed; settings: cited from earlier work
# [12] = tested on: Ligustrum sinense (Chinese privet); set-up: key: X indicates that the given herbicide is suitable for controlling the given weed; settings: cited from earlier work
# [13] = tested on: Gleditsia triacanthos (Honey locust); set-up: key: X indicates that the given herbicide is suitable for controlling the given weed; settings: cited from earlier work
# [14] = tested on: Cinnamonum camphora (Camphor laurel); set-up: key: X indicates that the given herbicide is suitable for controlling the given weed; settings: cited from earlier work
# [15] = tested on: Cestrum parqui (Green cestrum); set-up: key: X indicates that the given herbicide is suitable for controlling the given weed; settings: cited from earlier work
# [16] = tested on: Olea europea sbsp africana (African olive); set-up: key: X indicates that the given herbicide is suitable for controlling the given weed; settings: cited from earlier work
# [17] = tested on: Senegalia catechu (Cutch tree); set-up: key: X indicates that the given herbicide is suitable for controlling the given weed; settings: cited from earlier work
# [18] = 11 weeks post treatment, 1 or 2 capsules per tree
compound,measurement,setting,value
O=C(O)CNCP(=O)(O)O [Glyphosate],suitability of herbicide for control of weed,[1],X
same,flashback in the trees marked for retention,[2]; 11 week assessment,no flashback was observed
same,"trees died / killed (health rating 0-4 scale, 0 dead)",[2]; [18],majority of trees
same,suitability of herbicide for control of weed,[3],X
same,suitability of herbicide for control of weed,Populus spp (Poplars),X
same,suitability of herbicide for control of weed,[4],X
same,suitability of herbicide for control of weed,[5],X
same,suitability of herbicide for control of weed,[6],X
same,suitability of herbicide for control of weed,[7],X
same,trees dead,"[8]; 2 capsules per tree, at 4 months",~90%
same,treated trees killed,"[8]; 2 capsules per tree, by 7 months",all had been killed
same,treated trees killed,"[8]; 3 capsules per tree, by 4 months",killed all treated trees
same,mortality,[8]; at 4 months,~70%
same,mortality,[8]; by 7 months,~80%
same,suitability of herbicide for control of weed,Mimosa pigra (Mimosa),X
same,flashback in the trees marked for retention,[9]; 11 week assessment,no flashback was observed
same,"trees died (health rating 0-4 scale, 0 dead)",[9]; [18],majority of trees
same,suitability of herbicide for control of weed,[10],X
same,suitability of herbicide for control of weed,[11],X
same,suitability of herbicide for control of weed,[12],X
same,suitability of herbicide for control of weed,[13],X
same,suitability of herbicide for control of weed,[14],X
same,suitability of herbicide for control of weed,[15],X
same,suitability of herbicide for control of weed,[16],X
same,suitability of herbicide for control of weed,[17],X
